Results on 15 molecules are retold here after patent US20240189287A1, “PERIPHERALLY RESTRICTED CB1 RECEPTOR BLOCKERS AND USES THEREOF” (BIONANOSIM (BNS) LTD, priority 2021, published 2024).

In general, Ki refers to a measure of affinity in units of concentration, obtained from inhibition or displacement. As a reminder, the Papp is a coefficient for how fast a substance crosses the barrier. The IC50 is the concentration that gives 50% inhibition.

For series [1], the system named is Salmonella typhimurium (TA98, TA100).
For series [2], the target named is T1, CB1 receptor (Mus musculus (Mouse), UniProt P47746). The series can be described thus: CB1 receptor radioligand binding assay, [3H]CP-55,940 displacement, mouse brain membranes. Conditions: mouse (m) CB1 receptor; read-out: CB1R Ki (nM) (m). The procedure:
(§1) Radioligand binding assays: Binding affinity was determined by a radioligand binding assay. The different BB8-conjugates binding to CB1 and CB2 receptors was assessed in competition displacement assays using [^3H]CP-55.940 as the radioligand and crude membranes from mouse brain for CB1 receptor and human kidney cells for CB2 receptor.
CB1 receptor binding assay: Mouse brain membranes were used as the source material for CB1 receptors. The displacement of specifically bound tritiated CP-55.940 from these membranes using a standard filtration assay was used to determine the Ki values for the test compounds. Briefly. 20 μg of protein was incubated for 1 h at 30° C. in the presence of 0.5 nM [^3H]CP-55,940 and various concentrations (10^−5M-10^−11M) of test compound/control, final volume of 1 mL. The incubation was terminated by rapid filtration and washing, and the amount of specifically bound [^3H]CP-55,940 was determined. Briefly, membranes with bound [^3H]CP-55,940 were separated and washed from free ligand by vacuum filtration, adsorbing the membrane onto a Whatman glass microfiber filter paper ([…], Cat #1821271). Finally, the Whatman filter paper with adsorbed membranes was cut and placed in scintillation liquid (Ultima Gold) for 1 h at 25° C. followed by a β counter reading of bound [^3H]CP-55,940 radioligand. All data were in triplicates with Ki values determined using GraphPad Prism 7.02 analysis software. […] In some cases, membranes from human source were used to determine CB1 receptor binding affinity.

A further series deals with CB2 receptor (Homo sapiens (Human), UniProt P34972). The series is described as follows: CB2 receptor radioligand binding assay, [3H]CP-55,940 displacement, human kidney membranes. The note with it: for Ki: read-out: hCB2R Ki. On the procedure: as §1
Sequence of CB2 receptor (P34972 whole entry): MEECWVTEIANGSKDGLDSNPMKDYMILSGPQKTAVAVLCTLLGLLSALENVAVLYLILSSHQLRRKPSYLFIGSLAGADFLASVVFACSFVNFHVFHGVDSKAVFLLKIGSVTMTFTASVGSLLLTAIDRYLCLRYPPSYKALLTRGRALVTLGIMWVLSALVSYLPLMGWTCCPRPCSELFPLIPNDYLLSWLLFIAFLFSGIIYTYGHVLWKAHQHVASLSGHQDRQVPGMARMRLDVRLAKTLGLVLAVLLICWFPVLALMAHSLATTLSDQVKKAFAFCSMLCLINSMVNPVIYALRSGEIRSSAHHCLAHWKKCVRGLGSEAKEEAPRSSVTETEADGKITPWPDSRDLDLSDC
CB2 receptor binding assay: Human kidney membranes were used as the source material for CB2 receptors. The displacement of specifically bound tritiated CP-55,940 from these membranes using a standard filtration assay was used to determine the Ki values for the test compounds. Briefly, 1.25 μg of protein was incubated for 1.5 h at 30° C. in the presence of 0.5 nM [^3H]CP-55,940 and various concentrations (10^−5M-10^−11M) of test compound/control, final volume of 1 mL. The incubation was terminated by rapid filtration and washing, and the amount of specifically bound [^3H]CP-55,940 was determined. Briefly, membranes with bound [^3H]CP-55,940 were separated and washed from free ligand by vacuum filtration, adsorbing the membrane onto a Whatman glass microfiber filter paper ([…], Cat #1821271). Finally, the Whatman filter paper with adsorbed membranes was cut and placed in scintillation liquid (Ultima Gold) for 1 h at 25° C. followed by a β counter reading of bound [^3H]CP-55,940 radioligand. All data were in triplicates with Ki values determined using GraphPad Prism 7.02 analysis software.

The target of series [3] is T1, CB1 receptor. The series can be described thus: [35S]GTPγS binding assay for CB1 receptor, mouse brain membranes. The format is biochemical. The note with it: nature of binding: agonist/antagonist/inverse agonist. The procedure: For CB1 receptor-mouse brains were dissected and P2 membranes prepared and resuspended at ˜2 μg protein/μL in 1 ml assay buffer (50 mM Tris HCl, 9 mM MgCl2, 0.2 mM EDTA, 150 mM NaCl; pH 7.4). Ligand-stimulated [^35S]GTPγS binding was assayed as described previously (Tam et al., JCI 2010). Briefly, membranes (10 μg protein) were incubated in assay buffer containing 100 μM GDP, 0.05 nM [^35S]GTPγS, test compounds at various concentrations (CP55940/Rimonabant as controls and test compounds for BB8 conjugates), and 1.4 mg/mL fatty acid-free BSA in siliconized glass tubes. Membranes with bound ligand ([^35S]GTPγS) were separated from free ligand by vacuum filtration and were analyzed using β counter as described above. Non-specific binding was determined using 10 μM GTPS (cold GTP). Basal binding was assayed in the absence of the tested compound and in the presence of GDP.
On the technique in general: Binding of GTPγS marks nucleotide exchange on a G protein.

Another series deals with MDR1-MDCKII cells. The series can be described thus: MDR1-MDCK II cell permeation assay (bi-directional permeability, P-gp efflux). The format is in vitro ADME. On the procedure: (§2) Test and reference compounds were diluted with transport buffer (HBSS with 10 mM Hepes, pH 7.4) from stock solution to a concentration of 2 μM (DMSO<1%) and applied to the apical or basolateral side of the cell monolayer. Permeation of the test compounds from A to B direction or B to A direction was determined in duplicate with/without P-gp inhibitor (GF120918, 10 μM). […] The plate was incubated for 2.5 hours in CO2 incubator at 37±1° C., with 5% CO2 at saturated humidity without shaking. In addition, the efflux ratio of each compound was also determined. Test and reference compounds were quantified by LC-MS/MS analysis based on the peak area ratio of analyte/IS.
(§3) The in vitro bi-directional permeability across MDR1-MDCKII cells including P-glycoprotein (Pgp, ABCB1) efflux in the presence and absence of a P-gp inhibitor is an indicator as to the tendency of an orally administered compound to penetrate the brain.

For the next series, the system named is P-gp (MDR1, ABCB1). The series is described as above. The format is in vitro ADME. Conditions: dog; for Papp at 2.5 h, 2 μM: A to B. On the procedure:
as §2, §3

The subject of another series is HepG2 Cells. The series can be described thus: Cell Viability Assay in HepG2 Cells at 72 h. The format is cell-based, human. Conditions: HepG2, 72 h, read-out: Relative IC50. On the procedure: The liver plays a central role in transforming and clearing chemicals, and therefore is susceptible to toxicity of these agents. BNS808, BNS822 and other selected compounds were tested in the HepG2 assay using […] to evaluate cytotoxicity.

[4] abbreviates: MDCK-MDR1, pH 7.4, with GF120918, 10 μM, efflux ratio in the presence of P-gp inhibitor GF120918, read-out: MDR1 B:A/A:B (+P-gp inhibitor).
Setting [5] is: MDCK-MDR1, pH 7.4, efflux ratio, without P-gp inhibitor, read-out: MDR1 B:A/A:B.

Each structure is given as a SMILES string. Like-named read-outs stand apart in the source and are kept apart here.

T1 sequence (P47746 whole entry): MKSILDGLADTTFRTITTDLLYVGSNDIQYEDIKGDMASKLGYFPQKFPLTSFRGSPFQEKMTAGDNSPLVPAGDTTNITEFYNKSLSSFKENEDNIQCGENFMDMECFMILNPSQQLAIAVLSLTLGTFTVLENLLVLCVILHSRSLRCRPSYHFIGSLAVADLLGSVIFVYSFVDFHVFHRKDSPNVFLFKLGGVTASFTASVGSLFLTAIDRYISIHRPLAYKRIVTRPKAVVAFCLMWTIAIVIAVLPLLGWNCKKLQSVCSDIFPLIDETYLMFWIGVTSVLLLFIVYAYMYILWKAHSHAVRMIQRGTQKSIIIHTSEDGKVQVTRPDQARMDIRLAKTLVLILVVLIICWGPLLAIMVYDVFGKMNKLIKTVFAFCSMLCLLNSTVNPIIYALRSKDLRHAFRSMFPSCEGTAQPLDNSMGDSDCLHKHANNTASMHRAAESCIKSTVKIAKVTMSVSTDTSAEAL

As for `Nc1ccc2cc3ccccc3cc2c1` [2-Aminoanthracene, reference compound], the “AMES result (positive/negative)” value in series [1] (TA98, S9 yes) was “positive”; in series [1] (TA100, S9 yes), “positive”.
As to `O=[N+]([O-])c1ccc2c(c1)Cc1ccccc1-2` [2-Nitroflurene, reference compound], the “AMES result (positive/negative)” value in series [1] (TA98, S9 no) is listed as “positive”.
With `O=C(NC1CCCOc2c1nn(-c1ccccc1Cl)c2-c1ccc(Cl)cc1)c1ccccn1` (stereo not shown) [BNS810, N-[2-(2-chlorophenyl)-3-(4-chlorophenyl)-5,6,7,8-tetrahydrooxepino[3,2-c]pyrazol-8-yl]pyridine-2-carboxamide], the inhibition constant Ki on CB1 receptor [2] worked out at 64.5 nM; at CB2 receptor, 988 nM. On CB1 receptor [3], the “mCB1R GTPγ[^35S] (activity)” value is given as “Antagonist”.
For `O=C(NC1CCCOc2c1nn(-c1ccccc1Cl)c2-c1ccc(Cl)cc1)c1ccncn1` (stereo not shown) [BNS811, N-[2-(2-chlorophenyl)-3-(4-chlorophenyl)-5,6,7,8-tetrahydrooxepino[3,2-c]pyrazol-8-yl]pyrimidine-4-carboxamide], in that order: 65.6 nM, 963 nM and “Antagonist”.
For `O=C(NC1CCCOc2c1nn(-c1ccccc1Cl)c2-c1ccc(Cl)cc1)c1ccncc1` (stereo not shown) [BNS812, N-[2-(2-chlorophenyl)-3-(4-chlorophenyl)-5,6,7,8-tetrahydrooxepino[3,2-c]pyrazol-8-yl]pyridine-4-carboxamide], in that order: 16.3 nM, 1300 nM and “Antagonist”.
As to `CNC(=O)NC1CCCOc2c1nn(-c1ccccc1Cl)c2-c1ccc(Cl)cc1` (stereo not shown) [BNS813, 1-[2-(2-chlorophenyl)-3-(4-chlorophenyl)-5,6,7,8-tetrahydrooxepino[3,2-c]pyrazol-8-yl]-3-methyl-urea], the inhibition constant (Ki) on CB1 receptor [2] is 1130 nM.
For `CCOC(=O)N1CCC(C(=O)NC2CCCOc3c2nn(-c2ccccc2Cl)c3-c2ccc(Cl)cc2)CC1` (stereo not shown) [BNS816, Ethyl-4-((2-(2-chlorophenyl)-3-(4-chlorophenyl)-5,6,7,8-tetrahydro-2H-oxepino[3,2-c]pyrazol-8-yl)carbamoyl)piperidine-1-carboxylate], the Ki is 8.93 nM on CB1 receptor [2] and 1530 nM on CB2 receptor. On CB1 receptor [3], the “mCB1R GTPγ[^35S] (activity)” value is on record as “Inverse Agonist”. The P-gp substrate entry with MDR1-MDCKII cells was “No”. Also, the “Rank Papp” value with MDR1-MDCKII cells is “High”. In addition, the “MDR1 B:A/A:B” value in the series with MDR1-MDCKII cells (efflux ratio, without P-gp inhibitor) stood at 0.77. In addition, the efflux ratio at 2.5 h, 2 μM in the series on P-gp (MDR1, ABCB1) (setting [4]) was determined as 0.61. The molecule also had a Papp at 2.5 h, 2 μM with P-gp (MDR1, ABCB1) (MDCK-MDR1, pH 7.4) of 6.99 ×10⁻⁶ cm/s.
For the molecule `O=C(NC1CCCOc2c1nn(-c1ccccc1Cl)c2-c1ccc(Cl)cc1)C1CCN(C(=O)c2cccnc2)CC1` (stereo not shown) [BNS817, N-[2-(2-chlorophenyl)-3-(4-chlorophenyl)-5,6,7,8-tetrahydrooxepino[3,2-c]pyrazol-8-yl]-1-(pyridine-3-carbonyl)piperidine-4-carboxamide], the inhibition constant Ki at CB1 receptor [2] stood at 290 nM. At CB2 receptor, the “hCB2R Ki (nM)” value was “No binding”. The “mCB1R GTPγ[^35S] (activity)” value at CB1 receptor [3] is on record as “Inverse Agonist”. Further, in the series with MDR1-MDCKII cells, the P-gp substrate result is “P-gp substrates and Yes”; the “Rank Papp” value is reported as “High”. Further, in the series with P-gp (MDR1, ABCB1) (setting [4]), the efflux ratio at 2.5 h, 2 μM turned out to be 0.64. This molecule also showed an apparent permeability coefficient (Papp) at 2.5 h, 2 μM with P-gp (MDR1, ABCB1) (MDCK-MDR1, pH 7.4) of 8.09 ×10⁻⁶ cm/s. Also, in the series with P-gp (MDR1, ABCB1) (setting [5]), the efflux ratio at 2.5 h, 2 μM came out at 1.92.
As for `CNCC(=O)NC1CCCOc2c1nn(-c1ccccc1Cl)c2-c1ccc(Cl)cc1` (stereo not shown) [BNS819, N-[2-(2-chlorophenyl)-3-(4-chlorophenyl)-5,6,7,8-tetrahydrooxepino[3,2-c]pyrazol-8-yl]-2-(methylamino)acetamide], the Ki on CB1 receptor [2] is 922 nM.
On to `O=C(NC1CCCOc2c1nn(-c1ccccc1Cl)c2-c1ccc(Cl)cc1)[C@H]1CCCN1` (stereo partly drawn) [BNS820, (2R)—N-[2-(2-chlorophenyl)-3-(4-chlorophenyl)-5,6,7,8-tetrahydrooxepino[3,2-c]pyrazol-8-yl]pyrrolidine-2-carboxamide], for which, on CB1 receptor [2], the Ki came out at 877 nM.
Consider `O=C(NC1CCCOc2c1nn(-c1ccccc1Cl)c2-c1ccc(Cl)cc1)[C@@H]1CCCN1` (stereo partly drawn) [BNS821, (2S)—N-[2-(2-chlorophenyl)-3-(4-chlorophenyl)-5,6,7,8-tetrahydrooxepino[3,2-c]pyrazol-8-yl]pyrrolidine-2-carboxamide], for which, on CB1 receptor [2], the Ki was found to be 1400 nM.
Consider `CC(C)(Oc1ccc(C(=O)c2ccc(Cl)cc2)cc1)C(=O)NC1CCCOc2c1nn(-c1ccccc1Cl)c2-c1ccc(Cl)cc1` (stereo not shown) [BNS823, 2-[4-(4-chlorobenzoyl)phenoxy]-N-[2-(2-chlorophenyl)-3-(4-chlorophenyl)-5,6,7,8-tetrahydrooxepino[3,2-c]pyrazol-8-yl]-2-methyl-propanamide], for which the Ki on CB1 receptor [2] is 56.7 nM. In addition, the “hCB2R Ki (nM)” value on CB2 receptor is recorded as “No binding”. In addition, the “mCB1R GTPγ[^35S] (activity)” value at CB1 receptor [3] is recorded as “Antagonist”. In addition, in the series with MDR1-MDCKII cells, the P-gp substrate result is “No” and the “Rank Papp” value is “Low”. In the series with P-gp (MDR1, ABCB1) (setting [4]), the efflux ratio at 2.5 h, 2 μM was greater than 30.9. In the series with P-gp (MDR1, ABCB1) (MDCK-MDR1, pH 7.4), this molecule returned a Papp at 2.5 h, 2 μM of less than 0.003 ×10⁻⁶ cm/s. Further, the efflux ratio at 2.5 h, 2 μM with P-gp (MDR1, ABCB1) (setting [5]) is greater than 27.9.
In the case of `CS(=O)(=O)CC(=O)N1CCC(C(=O)NC2CCCOc3c2nn(-c2ccccc2Cl)c3-c2ccc(Cl)cc2)CC1` (stereo not shown) [BNS824, N-[2-(2-chlorophenyl)-3-(4-chlorophenyl)-5,6,7,8-tetrahydrooxepino[3,2-c]pyrazol-8-yl]-1-(2-methylsulfonylacetyl)piperidine-4-carboxamide], the inhibitory constant (Ki) on CB1 receptor [2] was determined as 456 nM.
Turning to `O=C(NC1CCCOc2c1nn(-c1ccccc1Cl)c2-c1ccc(Cl)cc1)C1CCN(S(=O)(=O)c2ccc(Cl)cc2)CC1` (stereo not shown) [BNS825, N-[2-(2-chlorophenyl)-3-(4-chlorophenyl)-5,6,7,8-tetrahydrooxepino[3,2-c]pyrazol-8-yl]-1-(4-chlorophenyl)sulfonyl-piperidine-4-carboxamide], the Ki is 1.6 nM on CB1 receptor [2] and 127 nM on CB2 receptor. Moreover, the “mCB1R GTPγ[^35S] (activity)” value on CB1 receptor [3] is “Antagonist”. Besides, in the series with HepG2 Cells (Homo sapiens), the IC50 is greater than 100000 nM.
For the molecule `CN[C@@H]1C[C@H]2O[C@@](C)([C@@H]1OC)n1c3ccccc3c3c4c(c5c6ccccc6n2c5c31)C(=O)NC4` [Staurosporine, reference compound], the IC50 with HepG2 Cells was 60 nM.
